In brackets after ≈: the same amount, converted by molar mass. Like-named read-outs stand apart in the source and are kept apart here. Marks after values point to notes of the source that are not given here.
What was measured:
[1] = tested on: PA01 Pseudomonas aeruginosa ATCC 15692; experiment: MIC assay, two-fold antibiotic dilutions in CAMHB with alginate oligomer, no visible growth; type: cell-based; conditions: Pseudomonas aeruginosa, ATCC15692, Table 4, PA01 non MDR, read-out: MIC
[2] = tested on: Pseudomonas aeruginosa MDR 301 from Poland (V2); experiment: MIC assay, CAMHB with alginate oligomer, no visible growth; type: cell-based; conditions: Pseudomonas aeruginosa, Table 4, V2 MDR (Pol.), read-out: MIC
Streptococcus oralis = experiment: MIC-assay, Mueller-Hinton broth with G-block alginate, 384-well, OD600 (Table 12); type: cell-based; conditions: Streptococcus oralis (5610, V17) MDR
Text: (§1) Minimum inhibitory concentration (MICs) of different antibiotics for strains of Streptococcus oralis and Staphylococcus aureus (MRSA) displaying MDR phenotypes in the presence of varying concentrations of OligoCF-5/20 (0-10%). (MIC values are expressed in μg ml^−1).

[3] = tested on: Staphylococcus aureus (MRSA) U50; experiment: as above; type: cell-based; conditions: MRSA 1040s, U50 MDR
Text: as §1

[4] = tested on: V9 (Egypt) Acinetobacter baumannii; experiment: MIC assay, CAMHB with alginate oligomer, no visible growth; type: cell-based; conditions: Table 5, V9 MDR Acin. baum
MDR Providencia stuartii = experiment: MIC-assay, Mueller-Hinton broth with G-block alginate, 384-well, OD600 (Table 11); type: cell-based; conditions: Providencia stuartii (IR57 India, V7) MDR
Text: Minimum inhibitory concentration (MICs) of different antibiotics for strains of E. coli and Providencia stuartii displaying MDR phenotypes in the presence of varying concentrations of OligoCF-5/20 (0-10%). (MIC values are expressed in μg ml^−1).

[5] = tested on: V12 5725 (Wales) Klebsiella pneumoniae; experiment: MIC assay, CAMHB with alginate oligomer, no visible growth; type: cell-based; conditions: Table 5, V12 MDR Kleb pneu
[6] = tested on: Pseudomonas aeruginosa CFA 24-1, clinical mucoid strain (R80); experiment: as above; type: cell-based; conditions: Pseudomonas aeruginosa, Table 4, R80 non MDR (muc.), read-out: MIC
[7] = tested on: Pseudomonas aeruginosa MDR R22 from China (V1); experiment: as above; type: cell-based; conditions: Pseudomonas aeruginosa, Table 4, V1 MDR (China), read-out: MIC
Text: The study described in Example 1 was repeated with the following strains of bacteria and antibiotics as detailed in Tables 4, 5 and 6.

[8] = tested on: Acinetobacter lwoffii (Egypt, V10); experiment: MIC-assay, Mueller-Hinton broth with G-block alginate, 384-well, OD600
[9] = tested on: Acinetobacter baumannii (MDR ACB, Libya, V4); experiment: as above
[10] = tested on: Pseudomonas aeruginosa (R22, PSA, V1); experiment: as above; conditions: Table 8, G-block (OligoCF-5/20) 0%
[11] = tested on: Pseudomonas aeruginosa (MDR 301, PSA, V2); experiment: as above; conditions: Table 8, V2
[12] = tested on: Pseudomonas aeruginosa ATCC 39324, mucoid type strain (R79); experiment: MIC assay, CAMHB with alginate oligomer, no visible growth; type: cell-based; conditions: Pseudomonas aeruginosa, ATCC39324, Table 4, R79 non MDR (muc.), read-out: MIC
[13] = tested on: Burkholderia cepacia (LMG18941, ATCC-BAA-246); experiment: MIC-assay, Mueller-Hinton broth with G-block alginate, 384-well, OD600
[14] = tested on: Acinetobacter lwoffii (6056, V22); experiment: as above
[15] = G-block (OligoCF-5/20) 0%, read-out: MIC
[16] = G-block (OligoCF-5/20) 2%, read-out: MIC
[17] = Table 9, G-block (OligoCF-5/20) 0%
[18] = Table 9, G-block (OligoCF-5/20) 2%
[19] = Table 9, G-block (OligoCF-5/20) 6%
[20] = Table 9, G-block (OligoCF-5/20) 10%

CC[C@H]1OC(=O)[C@H](C)[C@@H](O[C@H]2C[C@@](C)(OC)[C@@H](O)[C@H](C)O2)[C@H](C)[C@@H](O[C@@H]2O[C@H](C)C[C@H](N(C)C)[C@H]2O)[C@](C)(O)C[C@@H](C)C(=O)[C@H](C)[C@@H](O)[C@]1(C)O [Erythromycin]
MIC ([1]; OligoCF-5/20 0G): 128 µg/mL (≈ 174 µM)
MIC ([1]; OligoCF-5/20 +2% G): 64 µg/mL (≈ 87.2 µM)
MIC ([1]; OligoCF-5/20 +6% G): 64 µg/mL (≈ 87.2 µM)
MIC ([1]; OligoCF-5/20 +10% G): 16 µg/mL (≈ 21.8 µM)
MIC ([2]; OligoCF-5/20 0G): 128 µg/mL (≈ 174 µM)
MIC ([2]; OligoCF-5/20 +6% G): 64 µg/mL (≈ 87.2 µM)
MIC ([2]; OligoCF-5/20 +10% G): 16 µg/mL (≈ 21.8 µM)
MIC (Streptococcus oralis; [15]): 2 µg/mL (≈ 2.73 µM)
MIC (Streptococcus oralis; [16]): 16 µg/mL (≈ 21.8 µM)
MIC (Streptococcus oralis; G-block (OligoCF-5/20) 6%): 0.0312 µg/mL (≈ 0.0426 µM)
MIC (Streptococcus oralis; G-block (OligoCF-5/20) 10%): 0.0625 µg/mL (≈ 0.0852 µM)
MIC [3, 15]: > 1020 µg/mL
MIC [3, 16]: > 1020 µg/mL
MIC ([3]; G-block (OligoCF-5/20) 6%): 1020 µg/mL (≈ 1400 µM)
MIC ([3]; G-block (OligoCF-5/20) 10%): 512 µg/mL (≈ 698 µM)
MIC ([4]; Acinetobacter baumannii, OligoCF-5/20 0G, read-out: MIC): 8 µg/mL (≈ 10.9 µM)
MIC ([4]; OligoCF-5/20 +2% G): 4^† μg/ml
MIC ([4]; OligoCF-5/20 +6% G): 1^† μg/ml
MIC ([4]; OligoCF-5/20 +10% G): <0.5^† μg/ml
MIC (MDR Providencia stuartii; G-block (OligoCF-5/20) 0%): 32 µg/mL (≈ 43.6 µM)
MIC (MDR Providencia stuartii; G-block (OligoCF-5/20) 2%): 16 µg/mL (≈ 21.8 µM)
MIC (MDR Providencia stuartii; G-block (OligoCF-5/20) 6%): 16 µg/mL (≈ 21.8 µM)
MIC (MDR Providencia stuartii; G-block (OligoCF-5/20) 10%): 16 µg/mL (≈ 21.8 µM)
MIC ([5]; Klebsiella pneumoniae, OligoCF-5/20 0G, read-out: MIC): 512 µg/mL (≈ 698 µM)
MIC ([5]; OligoCF-5/20 +6% G): 512 µg/mL (≈ 698 µM)
MIC ([5]; OligoCF-5/20 +10% G): 512 µg/mL (≈ 698 µM)
MIC ([6]; OligoCF-5/20 0G): 512 µg/mL (≈ 698 µM)
MIC ([6]; OligoCF-5/20 +6% G): 128 µg/mL (≈ 174 µM)
MIC ([6]; OligoCF-5/20 +10% G): 32 µg/mL (≈ 43.6 µM)
MIC ([7]; OligoCF-5/20 0G): 128 µg/mL (≈ 174 µM)
MIC ([7]; OligoCF-5/20 +6% G): 64 µg/mL (≈ 87.2 µM)
MIC ([7]; OligoCF-5/20 +10% G): 32 µg/mL (≈ 43.6 µM)
MIC [8, 17]: 1 µg/mL (≈ 1.36 µM)
MIC [8, 18]: < 1 µg/mL
MIC [8, 19]: < 1 µg/mL
MIC [8, 20]: < 1 µg/mL
MIC [9, 17]: 32 µg/mL (≈ 43.6 µM)
MIC [9, 18]: 8 µg/mL (≈ 10.9 µM)
MIC [9, 19]: 4 µg/mL (≈ 5.45 µM)
MIC [9, 20]: 2 µg/mL (≈ 2.73 µM)
MIC [10]: > 512 µg/mL
MIC ([11]; Pseudomonas aeruginosa, G-block (OligoCF-5/20) 0%): > 512 µg/mL
MIC ([11]; Pseudomonas aeruginosa, G-block (OligoCF-5/20) 2%): > 512 µg/mL
MIC ([11]; G-block (OligoCF-5/20) 10%): 512 µg/mL (≈ 698 µM)
MIC ([12]; OligoCF-5/20 0G): 128 µg/mL (≈ 174 µM)
MIC ([12]; OligoCF-5/20 +2% G): 64 µg/mL (≈ 87.2 µM)
MIC ([12]; OligoCF-5/20 +6% G): 32 µg/mL (≈ 43.6 µM)
MIC ([12]; OligoCF-5/20 +10% G): 2 µg/mL (≈ 2.73 µM)
MIC ([13]; ATCCBAA246|LMG18941, Table 8, G-block (OligoCF-5/20) 6%): 64 µg/mL (≈ 87.2 µM)
MIC ([13]; ATCCBAA246|LMG18941, Table 8, G-block (OligoCF-5/20) 10%): 64 µg/mL (≈ 87.2 µM)
MIC [14, 17]: < 2 µg/mL
MIC [14, 18]: < 2 µg/mL
MIC [14, 19]: < 2 µg/mL
MIC [14, 20]: < 2 µg/mL

From patent US9801901B2, “Alginate oligomers for use in overcoming multidrug resistance in bacteria” (priority 2009, dated 2017)
